The source of these data is ChEMBL document CHEMBL3039007, “Structure-based identification of OATP1B1/3 inhibitors” (Mol Pharmacol, 2013).

As a reminder, the residual activity is the signal under treatment as a percentage of the control signal.

Starred links: 1 amine or outer side, 2 acyl side, 3 side chain; linkers in the order of their positions; H or OH if unused. Positions of bridges follow the written chain, without caps; N, C: chain ends. Non-standard residues stand in square brackets, D forms with d. Residues, ends and D or L forms follow the SMILES beside them. Chains are numbered I, II in the order given. Actinocin(9to1) = Cc1c2oc3c(C)ccc(C(=O)[*:1])c3nc-2c(C(=O)[*:2])c(N)c1=O; NMeV = CN[C@H](C(=O)O)C(C)C; Sar = CNCC(=O)O

Data set [1] concerns the target T1, Solute carrier organic anion transporter family member 1B3 (Homo sapiens, UniProt Q9NPD5).
T1 sequence (Q9NPD5 whole entry): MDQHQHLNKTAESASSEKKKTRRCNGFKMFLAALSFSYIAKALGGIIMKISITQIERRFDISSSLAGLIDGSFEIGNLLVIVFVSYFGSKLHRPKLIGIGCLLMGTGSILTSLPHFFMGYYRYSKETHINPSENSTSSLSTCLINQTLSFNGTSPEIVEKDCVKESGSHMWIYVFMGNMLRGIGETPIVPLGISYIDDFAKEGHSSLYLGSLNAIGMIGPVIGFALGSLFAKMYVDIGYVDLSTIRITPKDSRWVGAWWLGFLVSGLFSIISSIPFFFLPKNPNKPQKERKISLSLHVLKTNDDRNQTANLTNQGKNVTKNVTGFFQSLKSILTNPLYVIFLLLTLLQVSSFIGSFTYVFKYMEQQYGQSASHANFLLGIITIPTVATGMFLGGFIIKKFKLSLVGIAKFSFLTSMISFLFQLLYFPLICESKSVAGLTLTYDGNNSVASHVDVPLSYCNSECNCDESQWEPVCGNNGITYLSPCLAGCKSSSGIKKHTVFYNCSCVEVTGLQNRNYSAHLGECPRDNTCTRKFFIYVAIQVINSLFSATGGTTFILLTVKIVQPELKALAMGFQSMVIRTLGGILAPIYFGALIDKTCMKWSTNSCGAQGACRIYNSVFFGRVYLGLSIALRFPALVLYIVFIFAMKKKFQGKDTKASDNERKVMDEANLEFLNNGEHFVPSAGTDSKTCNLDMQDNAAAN
To be noted: chinese hamster, cho, 10 µM.

Data set [2] has as its target T2, Solute carrier organic anion transporter family member 1B1 (Homo sapiens, UniProt Q9Y6L6).
T2 sequence (Q9Y6L6 whole entry): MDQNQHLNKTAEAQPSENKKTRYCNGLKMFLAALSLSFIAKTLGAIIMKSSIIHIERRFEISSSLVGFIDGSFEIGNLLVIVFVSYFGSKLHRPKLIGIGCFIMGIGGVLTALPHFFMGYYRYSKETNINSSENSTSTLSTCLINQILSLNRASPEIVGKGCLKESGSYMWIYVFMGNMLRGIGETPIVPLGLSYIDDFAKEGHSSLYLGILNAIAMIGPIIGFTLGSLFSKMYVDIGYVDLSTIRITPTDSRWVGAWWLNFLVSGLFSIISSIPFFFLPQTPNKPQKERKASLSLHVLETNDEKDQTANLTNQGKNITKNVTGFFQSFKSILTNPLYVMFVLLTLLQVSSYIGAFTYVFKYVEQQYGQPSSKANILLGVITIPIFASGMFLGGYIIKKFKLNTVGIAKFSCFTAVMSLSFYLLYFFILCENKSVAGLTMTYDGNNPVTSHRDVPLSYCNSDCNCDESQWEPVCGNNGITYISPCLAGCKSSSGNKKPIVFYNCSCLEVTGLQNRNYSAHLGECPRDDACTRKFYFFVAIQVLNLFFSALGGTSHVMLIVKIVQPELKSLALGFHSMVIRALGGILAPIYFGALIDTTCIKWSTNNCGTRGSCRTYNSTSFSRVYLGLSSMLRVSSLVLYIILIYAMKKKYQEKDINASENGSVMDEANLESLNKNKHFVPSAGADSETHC
As to conditions: chinese hamster, cho, 10 µM.

In the case of `Cc1nc(C)c(Cl)c(O)c1Cl` [CLOPIDOL], the results for the residual activity in data set [1] and in data set [2] were 91.88% and 154.4%, respectively.

For `CC(=O)OC1CCC23CC1(C)CCC2C(C)(C)CC3OC(C)=O` (stereo not given) [CLOVANEDIOL DIACETATE], the residual activity in data set [1] was found to be 85.3%; in data set [2], 109.5%.

On to `Cc1onc(-c2ccccc2Cl)c1C(=O)N[C@@H]1C(=O)N2[C@@H]1SC(C)(C)[C@@H]2C(=O)[O-].O.[Na+]` [CLOXACILLIN SODIUM], for which the results for the residual activity in data set [1] and in data set [2] were 63.22% and 47.3%, respectively.

Take `Oc1ccc(Cl)c2cccnc12` [CLOXYQUIN]: the residual activity in data set [1] is on record as 93.36%; in data set [2], 104%.

On to `CN1CCN(C2=Nc3cc(Cl)ccc3Nc3ccccc32)CC1` [CLOZAPINE], for which the residual activity in data set [1] was determined as 93.38%; in data set [2], 86.29%.

As to `COc1cc2c(c(OC)c1OC)-c1ccc(=O)c(O)cc1[C@@H](NC(C)=O)CC2` [COLCHICEINE], the results for the residual activity in data set [1] and in data set [2] were 109.6% and 124%, respectively.

`COc1cc2c(c(OC)c1OC)-c1ccc(OC)c(=O)cc1[C@@H](NC(C)=O)CC2` [COLCHICINE]: the residual activity amounted to 101% in data set [1] and 75.12% in data set [2].

As to `C=C[C@@]1(C)CC(=O)[C@]2(O)[C@@]3(C)[C@@H](O)CCC(C)(C)[C@@H]3[C@H](O)[C@H](OC(C)=O)[C@@]2(C)O1` [COLFORSIN], the results for the residual activity in data set [1] and in data set [2] were 83.25% and 118.8%, respectively.

Consider `C[C@H]1[C@H]2CC[C@H]3[C@@H]4CC=C5C[C@@H](N(C)C)CC[C@]5(C)[C@H]4CC[C@]23CN1C` [CONESSINE], for which the residual activity in data set [1] worked out at 111.5%; in data set [2], 100.9%.

For `COc1cc(/C=C/CO)ccc1O` [CONIFERYL ALCOHOL], the residual activity came out at 66.12% in data set [1] and 49.7% in data set [2].

Turning to `CCC[C@H]1CCCCN1` [CONIINE], the figures for the residual activity in data set [1] and in data set [2] were 100.1% and 105.3%, respectively.

Turning to `C[C@@H]1O[C@@H](O[C@H]2CC[C@]3(C=O)[C@H]4CC[C@]5(C)[C@@H](C6=CC(=O)OC6)CC[C@]5(O)[C@@H]4CC[C@]3(O)C2)[C@H](O)[C@H](O)[C@H]1O` [CONVALLATOXIN], the results for the residual activity in data set [1] and in data set [2] were 95.81% and 102.3%, respectively.

Consider `COc1cc2cc3c4cc(OC)c(OC)cc4cc[n+]3c(C)c2cc1OC.[Cl-]` [CORALYNE], for which the figures for the residual activity in data set [1] and in data set [2] were 150.5% and 106.5%, respectively.

Take `CC(=O)OCC(=O)[C@@]1(O)CC[C@H]2[C@@H]3CCC4=CC(=O)CC[C@]4(C)[C@H]3C(=O)C[C@@]21C` [CORTISONE ACETATE]: the residual activity is reported as 98.8% in data set [1] and 103.3% in data set [2].

For the molecule `C[C@]12CCC(=O)C=C1CC[C@@H]1[C@@H]2C(=O)C[C@@]2(C)[C@H]1CC[C@]2(O)C(=O)CO` [CORTISONE], the residual activity in data set [1] is on record as 69.54%; in data set [2], 76.37%.

For the molecule `CC(=O)OC[C@H]1O[C@@H](Oc2cc(OC(C)=O)c3c(=O)cc(-c4ccc(OC(C)=O)cc4)oc3c2)[C@H](OC(C)=O)[C@@H](OC(C)=O)[C@@H]1OC(C)=O` [COSMOSIIN HEXAACETATE], the values for the residual activity in data set [1] and in data set [2] were 48.4% and 95.2%, respectively.

For `COc1c2c(cc3c1OCO3)CC[N+](C)=C2.[Cl-]` [COTARNINE CHLORIDE], the residual activity is reported as 93.29% in data set [1] and 85.95% in data set [2].

On to `CN1C(=O)CC[C@H]1c1cccnc1` [COTININE], for which the residual activity in data set [1] is reported as 103%; in data set [2], 106.5%.

`CCOP(=S)(OCC)Oc1ccc2c(C)c(Cl)c(=O)oc2c1` [COUMAPHOS]: the residual activity in data set [1] is 124.8%; in data set [2], 99.64%.

With `COc1ccccc1/C=C/C(=O)O` [COUMARINIC ACID METHYL ETHER], the residual activity is reported as 119.3% in data set [1] and 110.4% in data set [2].

As for `O=c1ccc2ccccc2o1` [COUMARIN], the values for the residual activity in data set [1] and in data set [2] were 99.05% and 116.6%, respectively.

On to `C=C1C(=O)O[C@H]2C[C@@H]1C(OC(C)=O)C/C(C)=C/CC/C(C)=C/CC[C@@]2(C)O` (stereo not given in full) [CRASSIN ACETATE], for which the values for the residual activity in data set [1] and in data set [2] were 65.53% and 60.87%, respectively.

In the case of `CN1CC(=O)NC1=N` [CREATININE], the residual activity in data set [1] came to 93.64%; in data set [2], 105.7%.

Regarding `O=C([O-])c1cc(=O)c2c(OCC(O)COc3cccc4oc(C(=O)[O-])cc(=O)c34)cccc2o1.[Na+].[Na+]` [CROMOLYN SODIUM], the residual activity in data set [1] is 94.62%; in data set [2], 101.2%.

For the molecule `CN1CCN(C(c2ccccc2)c2ccccc2)CC1` [CYCLIZINE], the residual activity was 103% in data set [1] and 88.13% in data set [2].

`CN(C)CCC=C1c2ccccc2C=Cc2ccccc21.Cl` [CYCLOBENZAPRINE HYDROCHLORIDE]: the residual activity is 102.1% in data set [1] and 85.24% in data set [2].

In the case of `NC1=NCCN1CC(=O)O` [CYCLOCREATINE], the residual activity turned out to be 127.5% in data set [1] and 108.2% in data set [2].

In the case of `NC1(C(=O)O)CCCC1` [CYCLOLEUCINE], the residual activity in data set [1] is on record as 108.5%; in data set [2], 99.09%.

`CN(C)CCOC(=O)C(c1ccccc1)C1(O)CCCC1.Cl` (stereo not given) [CYCLOPENTOLATE HYDROCHLORIDE]: the residual activity amounted to 100.2% in data set [1] and 87.23% in data set [2].

`CO[C@H]1C[C@H](O[C@H]2CC[C@]3(C=O)[C@H]4CC[C@]5(C)[C@@H](C6=CC(=O)OC6)CC[C@]5(O)[C@@H]4CC[C@]3(O)C2)O[C@H](C)[C@H]1O` [CYMARIN]: the values for the residual activity in data set [1] and in data set [2] were 87.59% and 87.74%, respectively.

Consider `CC(=O)[C@@]1(O)CC[C@H]2[C@@H]3C=C(Cl)C4=CC(=O)[C@@H]5C[C@@H]5[C@]4(C)[C@H]3CC[C@@]21C` [CYPROTERONE], for which the residual activity in data set [1] was 112.2%; in data set [2], 30.6%.

Take `Cl.Cl.NCCSSCCN` [CYSTAMINE DIHYDROCHLORIDE]: the residual activity in data set [1] is 89.2%; in data set [2], 111.3%.

As for `Nc1ccn([C@@H]2O[C@H](CO)[C@@H](O)[C@@H]2O)c(=O)n1` [CYTARABINE], the residual activity in data set [1] amounted to 95.76%; in data set [2] it was 78.64%.

With `Nc1ccn([C@@H]2O[C@H](CO)[C@@H](O)[C@H]2O)c(=O)n1` [CYTIDINE], the results for the residual activity in data set [1] and in data set [2] were 114% and 99.44%, respectively.

Consider `O=c1cccc2n1C[C@@H]1CNC[C@H]2C1` [CYTISINICLINE], for which the residual activity in data set [1] was determined as 106.2%; in data set [2], 99.71%.

On to `N[C@H](Cc1ccccc1)C(=O)O` [D-PHENYLALANINE], for which the residual activity in data set [1] is listed as 84.71%; in data set [2] it was 73.08%.

Consider `CN(C)/N=N/c1[nH]cnc1C(N)=O` [DACARBAZINE], for which the residual activity was determined as 90.13% in data set [1] and 97.65% in data set [2].

With `COC(=O)c1c(Cl)c(Cl)c(C(=O)OC)c(Cl)c1Cl` [DACTHAL], the residual activity was found to be 106.6% in data set [1] and 103.5% in data set [2].

Take `Cc1c2oc3c(C)ccc(C(=O)N[C@@H]4C(=O)N[C@H](C(C)C)C(=O)N5CCC[C@H]5C(=O)N(C)CC(=O)N(C)[C@@H](C(C)C)C(=O)O[C@@H]4C)c3nc-2c(C(=O)N[C@@H]2C(=O)N[C@H](C(C)C)C(=O)N3CCC[C@H]3C(=O)N(C)CC(=O)N(C)[C@@H](C(C)C)C(=O)O[C@@H]2C)c(N)c1=O` [DACTINOMYCIN] (I: T[dV]P[Sar][NMeV] / II: T[dV]P[Sar][NMeV]; ester I:1-I:C, II:1-II:C; linker I:N-II:N via Actinocin(9to1)): the residual activity is recorded as 85.16% in data set [1] and 57.98% in data set [2].

Regarding `O=c1c(-c2ccc(O)cc2)coc2cc(O)ccc12` [DAIDZEIN], the residual activity in data set [1] is 103.8%; in data set [2], 139.3%.
